Data published in patent US20250032581A1, “COMPOSITIONS AND ARTICLES COMPRISING AN ADNF POLYPEPTIDE” (RAMOT AT TEL-AVIV UNIVERSITY LTD., priority 2021, published 2025).

Tests used:
[1] = system: AT8 (hyperphosphorylated Tau); test: AT8 immunohistochemistry (hyperphosphorylated Tau); assay type: in vivo, mouse; conditions: WT males, data not shown
Procedure: AT8 Immunohistochemistry—experiment was performed as previously described (100). Mice were treated for 6 weeks with daily intranasal DD/NAP and were euthanized at 10.21±0.05 weeks of age.

[2] = system: Tyr mice; test: Developmental milestone assessment, weight and length of Tyr mouse pups; assay type: in vivo
Procedure: Animals—Animals were housed under a 12-hour light/dark cycle, with food and water ad-libitum. Mouse pups were subcutaneously administrated with NAP [having an amino acid sequence NAPVSIPQ (SEQ ID NO: 2), 25 μg NAP/1 ml saline] as described (8, 12). At 21 days of age mice were administered daily intranasal NAP in vehicle solution (“DD”—7.5 mg/ml of NaCl, 1.7 mg/ml of citric acid, 3 mg/ml of disodium phosphate dihydrate, and 0.2 mg/ml of 50% benzalkonium chloride solution) (0.5 μg NAP/5p1 DD) (8, 9, 12, and U.S. Pat. No. 10,912,819 to Gozes). These mice continued to behavioral analysis as described hereinbelow. The noninvasive intranasal route was chosen as these experiments required daily handling and administration. Age (weeks) of mice during behavioral experiments (mean±SEM) was as follows: Catwalk—9.23±0.15, grooming—10±0.15, social approach—10.5±0.12, odor-discrimination—12.12±0.13, hanging-wire—13±0.14, hotplate—13.18±0.13. Group size was determined following previous experiments (12). Pups were randomly allocated to either the NAP or DD group according to sex and genotype. All procedures involving animals were conducted under the supervision and approval of the institutional animal care and use committee of Tel Aviv University and the Israeli Ministry of Health.
Developmental milestone assessment and fostering—This experiment included animals from 16 litters in 2 experimental batches. It was performed as previously described (12) with slight modifications. Experimenters were blinded to sex and genotype during experimental procedures. Sexes were grouped if no statistically significant sex differences were discovered.
Additional behavioral assessments— • Fostering: To enable daily handling necessary for developmental milestone assessment and drug treatment, Tyr pups were fostered by ICR females which are known to be excellent dams. Tyr pups were moved after birth to an ICR female mouse who gave birth up to 48 hours prior. ICR litter was culled according to the number of Tyr pups that were added. One day afterwards the remaining ICR pups were euthanized so only Tyr pups were left in the litter. • Pup litter distribution analysis: The genotyping results at p1 after placement with the foster mother was used for this measurement. […] The same day pups were randomized to either NAP or Saline treatment groups according to genotype and sex results and developmental milestone assessment was performed from p1 to p21. As animal randomization ended up with unequal male/female ratios for certain groups and no statistical differences were found between the sexes in any of the 4 treatment groups (T test), the sexes […], [That is except for eye opening, where a significant difference was observed between the sexes in the Tyr group (P=0.047, no significance in the other three treatment groups)]. Pup paws were tattooed using a 31-gauge needle and tattoo ink (Ketchum Manufacturing Co., catalog 329AA) for identification on P1 and, until P21, underwent daily measurements for length and weight and observation for eye opening. Pups were injected daily with NAP, 1 hour prior to the tests as previously described^1.
Briefly, for ear twitch reflex, a cotton tip was gently brushed against the tip of the ear three times, between postnatal days 7-15 or until the pup responded correctly for two consecutive days. For air righting reflex, the pup was held up-side down and released ˜10.5 cm above the cage, containing 5 cm of shavings. The test was performed between postnatal days 8-21 or until the pup landed on the shavings with all four paws, for two consecutive days. For surface righting reflex, pups were placed on their backs on a level surface, the test was performed between postnatal days 1-13 until the pups was able to right itself with all four paws on the surface in under a second for two consecutive days. For eye opening, mice were observed daily until both eyes were open (eyelids separated completely). […]

SMILES: CC[C@H](C)[C@H](NC(=O)[C@H](CO)NC(=O)[C@@H](NC(=O)[C@@H]1CCCN1C(=O)[C@H](C)NC(=O)[C@@H](N)CC(N)=O)C(C)C)C(=O)N1CCC[C@H]1C(=O)N[C@@H](CCC(N)=O)C(=O)O [NAP, NAPVSIPQ]
- AT8 positive cells [1]: did not display a NAP effect
- rooting reflex ([2]; Tyr mice, data not shown): induced rooting in Tyr mice
- surface-righting, first day of acquisition ([2]; Tyr pups, daily s.c. NAP, WT 8.69±0.42, Tyr 10.14±0.36): 8.81 ± 0.33 days
- air-righting, first day of acquisition ([2]; Tyr pups, daily s.c. NAP, WT 12.96±0.28, Tyr 15.29±0.15): 14.63 ± 0.38 days
- body weight ([2]; WT female mice, data not shown): no effect observed on WT female mice
- eye opening ([2]; WT females, data not shown): no NAP effect was observed in WT females
- developmental milestones ([2]; WT littermates, data not shown): no effect on WT littermates except for the cliff aversion response
- eye opening ([2]; female Tyr mice, Tyr 16±0.37, WT 14.93±0.43): 14.78 ± 0.46 days
- eye opening ([2]; males, data not shown): No genotype/NAP effect was observed on males
